Source: patent EP3336173A1, “A STRAIN OF A[…] APPLICATIONS THEREOF” (Infinitec Activos S.L., priority 2016, dated 2018)

System: Prostaglandin E2 (PGE2)
Assay: Anti-inflammatory activity: PGE2 quantification by ELISA in cells stimulated by IL-1α
Type: cell-based
Conditions: Cycloheximide 100 µg/ml; IL-1α (5 pM)
Procedure: When cells are stimulated by an inflammatory agent PGE2 is synthesized de novo and released into the extracellular space. Thus quantification of PGE2 is used to asses the anti-inflammatory activity products.
In the present example the anti-inflammatory activity of the extract of example 2 was determined by quantification of PGE2 in cells stimulated by IL-1α using a kit for an enzyme-linked immunosorbent assay (ELISA). The kit used was Prostaglandin E2 EIA kit Item n° 514010 from Cayman Chemical.
Prostaglandin E2 assay is based on competition between the PGE2 to be determined and a fixed amount of added PGE2-acetylcholinesterase (AChE) conjugate (PGE2 tracer) for a limited amount of PGE2 monoclonal antibody. The amount of PGE2 tracer able to bind the PGE2 monoclonal antibody will be inversely proportional to the concentration of PGE2 in the well. Both the antibody-PGE2 complex and then antibody-PGE2 tracer complex bind to polyclonal goat anti-mouse IgG previously bound to the well. Then the plate is washed to remove any unbound reagent and Ellman's reagent is added to determine the amount of AChE bound to the well. […] The intensity of this color, determined by UV-Vis spectrophotometry, is proportional to the amount of PGE2 tracer bound […], which is inversely proportional to the amount of PGE2 present in the free well during incubation.

Question: Which results are given for `C[C@@H]1C[C@@H]([C@H](O)CC2CC(=O)NC(=O)C2)C(=O)[C@@H](C)C1` [Cycloheximide]?
Answer: PGE2: 31.85 pg/mL; inhibition at 100 µg/mL: 97.6%
